Experimental findings from patent publication US12448363B2, “Kinase inhibitors” (Vidya Therapeutics, Inc., priority 2020, dated 2025) are described below.

For series [1], the system named is BTK Activity in RAMOS B Cells. Description: Assay to determine BTK activity in RAMOS B cells (anti-IgM, FLIPR Calcium 6). Type of series: cell-based. The following applies: Homo sapiens, Ramos, EC80 anti-IgM, FLIPR calcium read. Here is the method:
On the day before assay, Ramos B cells were plated in plating medium (RPMI1640 medium containing 1% FBS and 1× pencillin-streptomycin). On the day of the assay, 2× dye solution was prepared following the manual of the FLIRP Calcium 6 Assay Kit: Dilute the dye with assay buffer (20 mM HEPES in 1×HBSS, pH7.4); Add probenecid to the final concentration of 5 mM; vortex vigorously for 1-2 minutes. Cells were collected by centrifuging, and the pellet was resuspended in plating medium. After counting, cells were resuspended at a density of 3×10^6/ml in plating medium. Equal volume of 2× dye solution was added to the cell suspension. Cells were then plated at 20 μl/well into a 384-well poly-D-lysine coated plate. Plate was centrifuged at 1000 rpm for 3 minutes and then incubated at 37° C. for 2 hours followed by an additional 15-minute incubation at 25° C. Compounds were prepared at 3× concentration in dilution buffer (20 mM HEPES and 0.1% BSA in 1×HBSS, pH 7.4). Serially diluted compound was transferred from source plate to a 384-well compound plate by using an Echo 550 (Labcyte). 20 μl/well compound dilution buffer was added to the compound plate and mixed on plate shaker for 2 mins. 4×EC80 of Anti-IgM (Jackson ImmunoResearch) was prepared in dilution buffer and 20 μl/well was added to a new 384-well compound plate. After 60 mins of incubation at 25° C. in the dark; cell plate, compound plate containing 4×EC80 of anti-IgM and FLIPR tips were placed into FLIPR (Molecular Devices). 10 ul/well of 4×EC80 anti-IgM was transferred to the cell plate by FLIPR. Plates were read for 160 sec with 1 sec interval.
With respect to Ramos activity, Table 9 lists activity as follows: • “A” denotes an IC50 of less than 10 nM; • “B” denotes an IC50 of from 10 nM to less than 100 nM; and • “C” denotes and IC50 of 100 nM or more.

The target of series [2] is T1, BTK (Homo sapiens, UniProt Q06187). Description: Assay to determine activity against BTK (EZ reader, FLPeptide). Format: biochemical. More on the design: purchased Carna. As to conditions: ATP (1 mM), BTK (2 nM), room temperature for 90 minutes. Here is the method:
Solutions of compounds (test or control) in DMSO were prepared at the desired concentrations, and serially diluted to 11 concentrations by 3-fold dilution in 384pp-plate using TECAN EVO200. 20 nL of stock were transferred to 384 plate using Echo550. DMSO was used as vehicle control.
Two separate solutions were prepared—an ATP solution containing MgCl2 (10 mM), Brij-35 (0.01%), DTT (2 mM), BSA (0.05%), EGTA (1 mM), HEPE (pH7.5) (50 mM), FLPeptide (6 uM) and ATP (4 mM); and a BTK solution containing MgCl2 (10 mM), Brij-35 (0.01%), DTT (2 mM), BSA (0.05%), EGTA (1 mM), HEPE (pH7.5) (50 mM) and BTK (2.67 nM). […] (Note the final volume of each well was 20 uL containing MgCl2 (10 mM), Brij-35 (0.01%), DTT (2 mM), BSA (0.05%), EGTA (1 mM), HEPE (pH7.5) (50 mM), FLPeptide (1.5 uM), ATP (1 mM) and BTK (2 nM).
The plates were incubated at room temperature for 90 minutes and then stopping buffer added (75 uL, containing 0.5 M EDTA) to terminate the reaction. Samples from each well were analyzed using EZ reader. The % remaining activity was calculated using read conversion ratio (CR) according to the equation: […]
XLFit (equation 201) was used to calculate IC50s by floating both bottom and top.
With respect to BTK activity, Table 4 lists activity as follows: • “A” denotes an IC50 of less than 10 nM, • “B” denotes an IC50 of from 10 nM to less than 100 nM; and • “C” denotes and IC50 of 100 nM or more.

Series [3] has as its target T1, BTK. Put plainly: Assay to determine BTK inactivation rate in human whole blood (ELISA of unoccupied BTK). Type of series: cell-based. On the set-up: Human whole blood is obtained from StemExpress; tissue StemExpress; host or cells: human whole blood. The following applies: 37° C., 5, 15, 30, 60 minutes; for kinact/KI: read-out: BTK hWB Kinact/Ki. The protocol:
Human Whole Blood Compound Treatment and Lysis
Human whole blood is obtained from StemExpress and kept at ambient temperature until the time of the experiment. […] This is prepared fresh each experimental day. […] Compounds are reconstituted to stocks of 10 mM and are diluted in two-fold serial dilutions to generate an 8-point curve in DMSO, with the last point being DMSO only, creating a 100× dilution series. A working 10× dilution series is created using 1.0 μL of the prepared DMSO titration, 100×, into […] 1×PBS in order to keep the DMSO constant. The human whole blood is added in the volume of 225 μL per well in a new 96w v-bottom plate, where one column of eight wells is sufficient for testing one compound. For compound treatment, 25 μL of 10× dilution series in PBS is added to the 225 μL whole blood, followed by briefly pipetting up and down twice. The plates are covered with lids and incubated at 37° C. for 5, 15, 30, 60 minutes. At each timepoint, 30 μL of treated blood is pulled from each column and added to preloaded collection plates that contain 30 μL of supplemented lysis buffer and mixed briefly. The collected and lysed samples shake on rotator for 60 minutes at room temperature. These samples are used fresh for detection via ELISA, and remaining sample is frozen at −80° C. if a repeat is necessary.
ELISA: Determining Amount of Unoccupied BTK
All streptavidin pre-coated plates (R&D Systems, #CP004) are brought to room temperature while samples are lysing. Assay Buffer 1, 1×PBS+0.05% Tween 20+1% BSA is prepared and stored at 4° C. when not in use. Using this Assay Buffer, assay buffer+1× protease/phosphatase inhibitor cocktail (PICs) is prepared in the amount needed for all samples. Assay Buffer+PICs in the volume of 90 μL/well is added to the ELISA plate. Lysed blood sample (10 μL) is added to the ELISA plate. BTK recombinant protein dilutions are prepared in assay buffer+PICS for use as a μM). The standard is loaded into the ELISA plate at 100 μL/well, in duplicate. These samples and standards remain in the plate, sealed, overnight at 4° C. The following day, the plate is washed four times with 1× Wash Buffer (1×PBS+0.05% Tween 20) using a plate washer. The plate is inverted to expel all fluid each time and blotted on clean paper towels to remove remaining liquid. Assay Buffer 2 is prepared (1×PBS+0.05% Tween 20+0.05% BSA) and kept at 4° C. when not in use. […] Diluted a-BTK antibody is added at 100 μl/well. The plate is covered with adhesive film and incubated for 90 minutes at room temperature. The plate is washed four times with 1× Wash Buffer (1×PBS+0.05% Tween 20) using a plate washer. The plate is inverted to expel all fluid each time and blotted on clean paper towels to remove remaining liquid. […] The diluted antibody is added at 100 μl/well. The plate is covered with adhesive film and incubated for one hour at room temperature. The plate is washed four times with 1× Wash Buffer using a plate washer. The plate is inverted to expel all fluid each time and blotted on clean paper towels to remove remaining liquid. […] The plate is incubated at room temperature in the dark for −5-10 minutes. The reaction is stopped by adding 50 μl/well 2N sulfuric acid (H2SO4) (R&D Systems, #DY994). The plate is read in a plate reader at the wavelengths […] and 570 nm (correction wavelength). Using Graphpad Prism, an XY table+graph is created, listing 0-60 minutes as X axis and concentration as Y axis. A One Phase Decay model fit is applied to the data. Checking Results table, the K values are obtained and new XY table+graph are created. Concentration is assigned to the X axis and K values from first analysis are entered. The Michaelis-Menten equation is applied to the data.

Series [4] can be described thus: Plasma and total brain concentrations at 1 h post a single oral administration to female C57BL/6 mice. The following applies: mouse, 1 h post single oral 10 mg/kg, LC-MS/MS, read-out: Brain:plasma ratio. Type of series: in vivo. The protocol: Determination of Plasma and Total Brain Concentrations at 1 h Post a Single Oral Administration of Test Compound to Female C57BL/6 Mice
The appropriate amount of test article was dissolved 10% dimethylacetamide (DMA)/90% (20% hydroxypropyl-b-cyclodextrin (HP-β-CD) w/v in water to obtain a final concentration of 1 mg/mL for oral dosing. Sonication, vortex, and homogenization was used as needed. Three female C57BL/6 mice aged 7-9 weeks (20-30 grams) were dosed by oral gavage 10 mg/kg solution of the test article.
Concentrations of representative test compounds in the plasma and brain samples (using plasma and brain homogenate standard curve for all samples appropriately) were analyzed using LC-MS/MS. With respect to the brain:plasma ratio, Table 11 lists the results as follows: • “A” denotes a ratio >0.5; • “B” denotes a ratio between 0.1 and 0.5; and • “C” denotes a ratio <0.1.

T1 sequence (Q06187 whole entry): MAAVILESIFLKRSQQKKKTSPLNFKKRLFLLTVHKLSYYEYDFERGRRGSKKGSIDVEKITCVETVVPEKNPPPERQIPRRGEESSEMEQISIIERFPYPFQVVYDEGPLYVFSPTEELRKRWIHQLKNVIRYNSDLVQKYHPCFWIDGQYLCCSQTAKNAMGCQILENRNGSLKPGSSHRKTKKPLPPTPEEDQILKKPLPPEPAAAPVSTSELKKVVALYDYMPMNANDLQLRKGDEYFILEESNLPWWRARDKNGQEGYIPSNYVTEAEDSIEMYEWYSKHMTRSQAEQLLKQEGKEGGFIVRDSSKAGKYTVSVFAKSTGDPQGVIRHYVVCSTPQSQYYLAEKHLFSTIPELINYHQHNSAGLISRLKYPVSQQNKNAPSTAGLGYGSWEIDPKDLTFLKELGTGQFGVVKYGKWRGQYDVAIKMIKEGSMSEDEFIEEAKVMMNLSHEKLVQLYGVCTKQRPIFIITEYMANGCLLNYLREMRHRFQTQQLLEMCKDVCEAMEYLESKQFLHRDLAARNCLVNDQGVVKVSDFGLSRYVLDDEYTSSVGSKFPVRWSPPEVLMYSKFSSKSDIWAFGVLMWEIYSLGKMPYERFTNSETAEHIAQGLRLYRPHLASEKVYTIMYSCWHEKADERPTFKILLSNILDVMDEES

As usually defined, the IC50 is the concentration needed to halve the response being measured. With `C=CC(=O)N1CCC2CCN(c3c(F)cc(C(N)=O)c4[nH]c(C)c(C)c34)CC21` (single isomer, unassigned) [Compound 32a, 4-(1-acryloyloctahydro-6H-pyrrolo[2,3-c]pyridin-6-yl)-5-fluoro-2,3-dimethyl-1H-indole-7-carboxamide], the IC50 (in series [1]; against BTK [2]) was 10 to 100 nM throughout. Besides, the “BTK hWB Kinact/Ki” value at BTK [3] is recorded as “A (a Kinact/Ki >10×10^−4 nM^−1 min^−1)”.
Turning to `C=CC(=O)N1CCC[C@H](c2c(F)cc(C(N)=O)c3[nH]c(C)c(Cl)c23)C1` [Compound 2b, (R)-4-(1-acryloylpiperidin-3-yl)-3-chloro-5-fluoro-2-methyl-1H-indole-7-carboxamide], the IC50 (in series [1]; against BTK [2]) was 10 to 100 nM in each case. Also, the kinact/KI at BTK [3] is 1670 to 16700 M⁻¹ s⁻¹.
`C=CC(=O)N1CCC=C(c2c(F)c(F)c(C(N)=O)c3[nH]c(C)c(Cl)c23)C1` [Compound 4, 4-(1-acryloyl-1,2,5,6-tetrahydropyridin-3-yl)-3-chloro-5,6-difluoro-2-methyl-1H-indole-7-carboxamide]: the IC50 (in series [1]; against BTK [2]) was < 10 nM throughout. Besides, on BTK [3], the kinact/KI was > 16700 M⁻¹ s⁻¹.
For `C=CC(=O)N1CCC[C@H](c2c(F)c(F)c(C(N)=O)c3[nH]c(C)c(Cl)c23)C1` [Compound 15, (R)-4-(1-acryloylpiperidin-3-yl)-3-chloro-5,6-difluoro-2-methyl-1H-indole-7-carboxamide], the IC50 (in series [1]; on BTK [2]) was 10 to 100 nM in each case. On BTK [3], the kinact/KI is > 16700 M⁻¹ s⁻¹.
On to `C=CC(=O)N1CCc2c(cccc2-c2c(F)cc(C(N)=O)c3[nH]c(C)c(Cl)c23)C1` [Compound 20a, 4-(2-acryloyl-1,2,3,4-tetrahydroisoquinolin-5-yl)-3-chloro-5-fluoro-2-methyl-1H-indole-7-carboxamide], for which the IC50 (in series [1]; at BTK [2]) was < 10 nM in each case. The kinact/KI on BTK [3] is < 1670 M⁻¹ s⁻¹.
`CC#CC(=O)N[C@H]1C[C@H](F)CN(c2c(F)cc(C(N)=O)c3[nH]c(C)c(Cl)c23)C1` [Compound 28, 4-((3S,5S)-3-(but-2-ynamido)-5-fluoropiperidin-1-yl)-3-chloro-5-fluoro-2-methyl-1H-indole-7-carboxamide]: the IC50 (in series [1]; on BTK [2]) was < 10 nM each time. The kinact/KI on BTK [3] lay within 1670 to 16700 M⁻¹ s⁻¹.
For the molecule `C=CC(=O)N1CCC2CCN(c3c(F)cc(C(N)=O)c4[nH]c(C)c(C)c34)CC21` (centres unmarked) [Compound 32, 4-(1-acryloyloctahydro-6H-pyrrolo[2,3-c]pyridin-6-yl)-5-fluoro-2,3-dimethyl-1H-indole-7-carboxamide], the IC50 (in series [1]; at BTK [2]) was 10 to 100 nM throughout. Besides, the kinact/KI at BTK [3] was < 1670 M⁻¹ s⁻¹.
For `C=CC(=O)N[C@H]1C[C@H](F)CN(c2c(F)cc(C(N)=O)c3[nH]c(C)c(C)c23)C1` [Compound 36, 4-((3S,5S)-3-acrylamido-5-fluoropiperidin-1-yl)-5-fluoro-2,3-dimethyl-1H-indole-7-carboxamide], the IC50 (in series [1]; on BTK [2]) was < 10 nM throughout. Besides, the kinact/KI at BTK [3] was > 16700 M⁻¹ s⁻¹.
On to `C=CC(=O)N[C@H]1C[C@@H](O)CN(c2c(F)cc(C(N)=O)c3[nH]c(C)c(C)c23)C1` [Compound 37, 4-((3S,5R)-3-acrylamido-5-hydroxypiperidin-1-yl)-5-fluoro-2,3-dimethyl-1H-indole-7-carboxamide], for which the IC50 in series [1] was ≥ 100 nM; on BTK [2], 10 to 100 nM.
For the molecule `C=CC(=O)N[C@H]1C[C@H](O)CN(c2c(F)cc(C(N)=O)c3[nH]c(C)c(C)c23)C1` [Compound 38, 4-((3S,5S)-3-acrylamido-5-hydroxypiperidin-1-yl)-5-fluoro-2,3-dimethyl-1H-indole-7-carboxamide], the IC50 (in series [1]; at BTK [2]) was 10 to 100 nM in each case.
For `C=CC(=O)N1CCC[C@@H](n2nc(-c3ccc(Oc4ccccc4)cc3)c3c(N)ncnc32)C1` [Ibrutinib, reference compound], the Kp at 1 h in series [4] is < 0.1.
